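Test compounds were applied to cells in 96-well plates for 48 hours at 5 doses. TGI denotes the concentration required for complete inhibition of growth.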 Where a SMILES comes first, the peptide text is derived from it. The star is where a group is joined. Boc = CC(C)(C)OC(=O)*
Experiments:
Test in all cases: DTP human tumour cell line panel, 48 h
BT-549 breast = system: BT-549 breast
DLD-1 colon = system: DLD-1 colon
DMS 114 small cell lung = system: DMS 114 small cell lung
HOP-18 NSCLC = system: HOP-18 NSCLC
KM20L2 colon = system: KM20L2 colon
LXFL 529 NSCLC = system: LXFL 529 NSCLC
M19-MEL melanoma = system: M19-MEL melanoma
SNB-78 CNS = system: SNB-78 CNS
XF 498 CNS = system: XF 498 CNS
RXF-631 renal = system: RXF-631 renal

Structure (SMILES) | TGI (BT-549 breast) [µM] | TGI (DLD-1 colon) [µM] | TGI (DMS 114 small cell lung) [µM] | TGI (KM20L2 colon) [µM] | TGI (LXFL 529 NSCLC) [µM] | TGI (M19-MEL melanoma) [µM] | TGI (SNB-78 CNS) [µM] | further results
CC1(C)S[C@@H]2[C@H](NC(=O)/C=C/c3ccccc3)C(=O)N2[C@H]1C(=O)O | > 100 |  |  |  |  |  |  | 
COP(=O)(C(/C=C/c1ccccc1)OC(C)=O)[C@@H]1CCCC[C@H]1N(CC(C)(C)C)C(C)=O (some centres not stated) | 33 |  |  |  |  |  |  | 
Cc1cc(C)c2c(c1)C(=O)C1(C2)Cc2c(ccc(C)c2C)C1=O (configuration not stated) | > 100 |  |  |  |  |  |  | 
COc1ccc2[nH]c3c(C)c4cnccc4c(C)c3c2c1 | > 10 |  |  |  |  |  |  | 
O=C(O)Cc1ccc2c(c1O)C(=O)c1c(ccc(CC(=O)O)c1O)C2=O |  | > 100 | > 100 | > 100 | > 100 | > 100 | > 100 | TGI (HOP-18 NSCLC): > 100 µM; TGI (XF 498 CNS): > 100 µM
O=C(NNC(=O)c1ccccc1Cl)c1ccccc1O | > 100 |  |  |  |  |  |  | 
C/C(CN1C(=O)c2ccccc2C1=O)=N\NS(=O)(=O)c1ccc(F)cc1 |  | > 100 | > 100 | > 100 | > 100 |  | > 100 | TGI (HOP-18 NSCLC): > 100 µM; TGI (XF 498 CNS): > 100 µM
CCOC(=O)c1c(N2CCOCC2)[nH]c(=O)c(C(c2ccc(Cl)c([N+](=O)[O-])c2)c2c(O)c(C(=O)OCC)c(N3CCOCC3)[nH]c2=O)c1O | 75.1 |  |  |  |  |  |  | 
CC(C)(C)OC(=O)N/N=C(/N)c1ccccc1 | > 100 |  |  |  |  |  |  | 
COC(=O)c1cc(C)n(NC(=O)OC(C)(C)C)c1C |  | > 100 | > 100 | > 100 | > 100 | > 100 | > 100 | 
CN(CC#N)C(=O)Cc1ccc([N+](=O)[O-])cc1 | > 10 |  |  |  |  |  |  | 
COC(=O)c1ccc(NCc2cc(O)ccc2O)cc1O | 14.2 |  |  |  |  |  |  | 
N#CC(c1ccccc1)N(CCc1ccccc1)C(=O)Oc1ccccc1 (configuration not stated) | > 100 |  |  |  |  |  |  | 
CC1C(=O)C23OC[C@@]1(C)C1(O)CC[C@@H](C)[C@]21CC3=O (some centres not stated) | > 100 |  |  |  |  |  |  | 
Cc1ccccc1NC(=O)C(=O)Cc1cnc2ccccc2n1 | > 100 |  |  |  |  |  |  | 
Cc1cc(=O)[nH]c(CNC(=O)Cc2ccccc2)n1 |  | > 100 | > 100 | > 100 | > 100 | > 100 | > 100 | TGI (XF 498 CNS): > 100 µM
Cc1cc(=O)[nH]c2c3c(ccc12)OC(C)(C)C=C3 | > 100 |  |  |  |  |  |  | 
COC(=O)/C(=N\O)C(C(=O)C=C(C)C)C(=O)C(=O)Nc1ccccc1C (configuration not stated) |  | > 100 | > 100 | > 100 | > 100 | > 100 | > 100 | TGI (HOP-18 NSCLC): > 100 µM; TGI (XF 498 CNS): > 100 µM

Structure (SMILES) | TGI (BT-549 breast) [µM] | TGI (DLD-1 colon) [µM] | TGI (DMS 114 small cell lung) [µM] | TGI (KM20L2 colon) [µM] | TGI (LXFL 529 NSCLC) [µM] | TGI (M19-MEL melanoma) [µM] | TGI (SNB-78 CNS) [µM] | further results
Nc1ccc(C(=O)NN2C(=O)C(Cl)C2c2cccc([N+](=O)[O-])c2)cc1 (configuration not stated) |  | 34.7 | 36.5 | 43.6 | 34.9 | 34.1 | > 100 | TGI (XF 498 CNS): 26.5 µM
CCOC(=O)c1cn2c([nH]c3ccccc32)c(C#N)c1=O |  | > 100 |  | > 100 | > 100 | > 100 | > 100 | TGI (HOP-18 NSCLC): > 100 µM; TGI (RXF-631 renal): > 100 µM; TGI (XF 498 CNS): > 100 µM
CC1(C)C(=O)C2(C#N)CCC1C2 (configuration not stated) | > 100 |  |  |  |  |  |  | 
CCOC(=O)C(Cc1cn(S(=O)(=O)c2ccc(C)cc2)cn1)P(=O)(OCC)OCC (configuration not stated) | > 100 |  |  |  |  |  |  | 
Cn1c2c(cc(-c3ccccc3)c1=O)COc1ccccc1-2 |  | > 100 | 36.2 | > 100 | > 100 | 64.2 | > 100 | TGI (HOP-18 NSCLC): > 100 µM; TGI (XF 498 CNS): 26.1 µM
COc1ccc(C2C(Cl)C(=O)N2NC(=O)c2ccc(N)cc2)cc1OC (configuration not stated) | 18.3 | 15.4 |  | 27.8 | 3.78 | 16.1 | > 100 | TGI (XF 498 CNS): 2.3 µM
COc1nc2c(c(=O)n1C)NC(C(O)C(O)CO)C=N2 (configuration not stated) | > 10 |  |  |  |  |  |  | 
O=C(Nc1cc(Cl)c(Cl)cc1Cl)C(=O)C(C(=O)c1ccc2ccccc2c1)C1OC(=O)c2ccccc21 (configuration not stated) |  | 32.9 | 44.1 |  | 22.6 | 53.6 | 38.6 | 
CCCCCC(=O)Cc1cc(OC)cc2c1C(=O)Oc1cc(O)c(C(=O)O)c(CC(=O)CCCCC)c1O2 |  | > 100 | > 100 | > 100 | > 100 | 69.6 | > 100 | TGI (RXF-631 renal): > 100 µM; TGI (XF 498 CNS): > 100 µM
Cc1cc(C)c(NS(=O)c2cccc([N+](=O)[O-])c2)c(C)c1 (configuration not stated) | > 100 |  |  |  |  |  |  | 
Cc1nc(N)sc1C(=O)/C=C/c1ccc([N+](=O)[O-])cc1 |  | > 100 | > 100 | > 100 |  | > 100 | > 100 | TGI (HOP-18 NSCLC): > 100 µM
CCOC(=O)C(CC(C)C)NC(=O)C(Cc1ccccc1)NC(=O)CNC(=O)OC(C)(C)C (stereo not drawn) (Boc-Gly-Phe-Leu-OEt; configuration not given here) | 50.9 |  |  |  |  |  |  | 
NC(=O)C(=CN1CC(=O)NC1=S)C(N)=O | > 100 |  |  |  |  |  |  | 
COc1ccc(C(=O)c2ccc(-n3c4ccccc4c4ccc5c(c43)C(=O)C=CC5=O)cc2)cc1 | 8.06 |  |  |  |  |  |  | 
C[N+](C)(Cc1ccc(NC(=O)CCCC(=O)ON2C(=O)CCC2=O)cc1)c1ccccc1 |  | > 100 |  |  | > 100 | > 100 |  | TGI (HOP-18 NSCLC): < 0.01 µM
CC(C)c1cccc(C(C)C)c1NC1=CC(=O)C(=O)c2ccccc21 |  | > 100 |  | > 100 | > 100 | 43.1 | > 100 | TGI (HOP-18 NSCLC): > 100 µM; TGI (RXF-631 renal): > 100 µM
COc1ccc(C2S/C(=C\c3cccc(O)c3)C(=O)N2NC(=O)Cc2ccccc2)cc1 (configuration not stated) |  | > 100 | > 100 |  | > 100 | > 100 |  | TGI (HOP-18 NSCLC): > 100 µM
COc1cccc(-c2cc(=O)c3cccnc3[nH]2)c1 | > 100 |  |  |  |  |  |  | 
